Measurements as given in BindingDB's records for doi:10.1021/jm0496077 (University of Southern California, 2005).

Tests used:
[1] = target: Integrase (Human immunodeficiency virus 1); test: Inhibitory concentration against human immuno deficiency virus type 1 integrase (Strand Transfer)
[2] = target: Integrase (Human immunodeficiency virus 1); test: Inhibitory concentration against human immuno deficiency virus type 1 integrase (3'-processing)

Structure (SMILES): O=C1/C(=C/c2c(NCCO)nc3ccccn3c2=O)SC(=S)N1Cc1ccco1 [3-[3-Furan-2-ylmethyl-4-oxo-2-thioxo-thiazolidin-(5E)-ylidenemethyl]-2-(2-hydroxy-ethylamino)-pyrido[1,2-a]pyrimidin-4-one]
- IC50 [1]: 100 µM
- IC50 [2]: > 100 µM

Structure (SMILES): COc1cc(/C=C2/SC(=S)N(CCC(=O)Nc3ccc(C(=O)O)cc3)C2=O)cc(OC)c1OC
- IC50 [1]: 85 µM
- IC50 [2]: 97 µM

Structure (SMILES): COc1ccc(/C=C2\SC(=S)N(CCC(=O)Nc3cccc(C(=O)O)c3)C2=O)cc1
- IC50 [1]: > 100 µM
- IC50 [2]: > 100 µM

Structure (SMILES): O=C(CCN1C(=O)/C(=C/c2cccs2)SC1=S)Nc1ccc(O)c(C(=O)O)c1 [2-Hydroxy-5-(3-{4-oxo-5-[1-thiophen-2-yl-meth-(Z)-ylidene]-2-thioxo-thiazolidin-3-yl}-propionylamino)-benzoic acid]
- IC50 [1]: 38 µM
- IC50 [2]: 38 µM

Structure (SMILES): CCOC(=O)N1CCN(C(=O)CCN2C(=O)/C(=C/c3ccc(OC)c(OC)c3)SC2=S)CC1 [4-(3-{5-[1-(3,4-Dimethoxy-phenyl)-meth-(Z)-ylidene]-4-oxo-2-thioxo-thiazolidin-3-yl}-propionyl)-piperazine-1-carboxylic acid ethyl ester]
- IC50 [1]: > 100 µM
- IC50 [2]: > 100 µM

Structure (SMILES): O=C(CN1C(=O)/C(=C2\SC(=S)N(CC(=O)Nc3ccc(O)cc3)C2=O)SC1=S)Nc1ccc(O)cc1 [N-(4-Hydroxy-phenyl)-2-{(E)-3''-[(4-hydroxy-phenylcarbamoyl)-methyl]-4,4''-dioxo-2,2''-dithioxo-[5,5'']bithiazolidinyliden-3-yl}-acetamide]
- IC50 [1]: 69 µM
- IC50 [2]: 59 µM

Structure (SMILES): O=C(CCN1C(=O)/C(=C/c2ccc3c(c2)OCO3)SC1=S)Nc1ccc(C(=O)O)c(O)c1 [4-(3-{5-[1-Benzo[1,3]dioxol-5-yl-meth-(Z)-ylidene]-4-oxo-2-thioxo-thiazolidin-3-yl}-propionylamino)-2-hydroxy-benzoic acid]
- IC50 [1]: 23 µM
- IC50 [2]: 33 µM

Structure (SMILES): COc1ccccc1/C=C1/SC(=S)N(CCC(=O)Nc2ccc(O)cc2)C1=O [N-(4-Hydroxy-phenyl)-3-{5-[1-(2-methoxy-phenyl)-meth-(E)-ylidene]-4-oxo-2-thioxo-thiazolidin-3-yl}-propionamide]
- IC50 [1]: 100 µM
- IC50 [2]: 99 µM

Structure (SMILES): O=C1/C(=C/c2ccc(O)cc2O)SC(=S)N1c1ccccc1 [5-[1-(2,4-Dihydroxy-phenyl)-meth-(Z)-ylidene]-3-phenyl-2-thioxo-thiazolidin-4-one]
- IC50 [1]: > 100 µM
- IC50 [2]: > 100 µM

Structure (SMILES): O=C(CCN1C(=O)/C(=C/c2ccc3c(c2)OCO3)SC1=S)Nc1ccc2c(c1)OCO2 [N-Benzo[1,3]dioxol-5-yl-3-{5-[1-benzo[1,3]dioxol-5-yl-meth-(Z)-ylidene]-4-oxo-2-thioxo-thiazolidin-3-yl}-propionamide]
- IC50 [1]: 93 µM
- IC50 [2]: 97 µM

Structure (SMILES): O=C(CCN1C(=O)/C(=C/c2ccccc2Cl)SC1=S)Nc1ccc([N+](=O)[O-])cc1 [3-{5-[1-(2-Chloro-phenyl)-meth-(Z)-ylidene]-4-oxo-2-thioxo-thiazolidin-3-yl}-N-(4-nitro-phenyl)-propionamide]
- IC50 [1]: > 100 µM
- IC50 [2]: > 100 µM

Structure (SMILES): CC(/C=C1\SC(=S)N(CCC(=O)Nc2ccc(O)c(C(=O)O)c2)C1=O)=C\c1ccccc1 [2-Hydroxy-5-(3-{5-[(E)-2-methyl-3-phenyl-prop-2-en-(Z)-ylidene]-4-oxo-2-thioxo-thiazolidin-3-yl}-propionylamino)-benzoic acid]
- IC50 [1]: 23 µM
- IC50 [2]: 36 µM

Structure (SMILES): Cc1ccc(/C=C2\SC(=S)N(CC(=O)Nc3ccc([N+](=O)[O-])cc3O)C2=O)cc1 [N-(2-Hydroxy-4-nitro-phenyl)-2-{4-oxo-2-thioxo-5-[1-p-tolyl-meth-(Z)-ylidene]-thiazolidin-3-yl}-acetamide]
- IC50 [1]: > 100 µM
- IC50 [2]: > 100 µM

Structure (SMILES): CCc1ccc(/C=C2/SC(=S)N(CC(=O)Nc3cccc(C(=O)O)c3)C2=O)cc1 [3-(2-{5-[1-(4-Ethyl-phenyl)-meth-(Z)-ylidene]-4-oxo-2-thioxo-thiazolidin-3-yl}-acetylamino)-benzoic acid]
- IC50 [1]: > 100 µM
- IC50 [2]: > 100 µM

Structure (SMILES): O=C(CN1C(=O)/C(=C2\SC(=S)N(CC(=O)Nc3ccc(C(=O)O)cc3)C2=O)SC1=S)Nc1ccc(C(=O)O)cc1 [4-{5-[3-(4-carboxyphenylcarbamoylmethyl)-4-oxo-2-thioxo-1,3-thiazolan-5-yliden]-4-oxo-2-thioxo-1,3-thiazolan-3-ylmethylcarboxamido}benzoic acid]
- IC50 [1]: 75 µM
- IC50 [2]: 59 µM

Structure (SMILES): CCOc1cc(C=C2SC(=S)N(NC(=O)c3ccccc3O)C2=O)ccc1O [N-{5-[1-(3-Ethoxy-4-hydroxy-phenyl)-meth-(Z)-ylidene]-4-oxo-2-thioxo-thiazolidin-3-yl}-2-hydroxy-benzamide]
- IC50 [1]: 38 µM
- IC50 [2]: 70 µM

Structure (SMILES): O=C(CN1C(=O)/C(=C/c2ccccc2Cl)SC1=S)Nc1cc([N+](=O)[O-])ccc1O [2-{5-[1-(2-Chloro-phenyl)-meth-(Z)-ylidene]-4-oxo-2-thioxo-thiazolidin-3-yl}-N-(2-hydroxy-5-nitro-phenyl)-acetamide]
- IC50 [1]: 18 µM
- IC50 [2]: 20 µM

Structure (SMILES): O=C(CCN1C(=O)/C(=C/c2cccs2)SC1=S)Nc1ccc2ccccc2c1 [N-Naphthalen-2-yl-3-{4-oxo-5-[1-thiophen-2-yl-meth-(Z)-ylidene]-2-thioxo-thiazolidin-3-yl}-propionamide]
- IC50 [1]: > 100 µM
- IC50 [2]: > 100 µM

Structure (SMILES): CCOc1ccc(/C=C2\SC(=S)N(CCC(=O)Nc3cccc(C(=O)O)c3)C2=O)cc1
- IC50 [1]: > 100 µM
- IC50 [2]: 93 µM

Structure (SMILES): O=C(CCN1C(=O)/C(=C/c2cccs2)SC1=S)Nc1cccc(O)c1 [N-(3-Hydroxy-phenyl)-3-{4-oxo-5-[1-thiophen-2-yl-meth-(Z)-ylidene]-2-thioxo-thiazolidin-3-yl}-propionamide]
- IC50 [1]: > 100 µM
- IC50 [2]: > 100 µM

Structure (SMILES): O=C(O)c1ccc(S(=O)(=O)c2ccc3c(c2)C(=O)N(c2ccc(O)c(C(=O)O)c2)C3=O)cc1 [5-[5-(4-Carboxy-benzenesulfonyl)-1,3-dioxo-1,3-dihydro-isoindol-2-yl]-2-hydroxy-benzoic acid]
- IC50 [1]: 44 µM
- IC50 [2]: 66 µM

Structure (SMILES): Cc1ccc(/C=C2/SC(=S)N(CC(=O)Nc3cccc(C(=O)O)c3)C2=O)cc1 [3-(2-{4-Oxo-2-thioxo-5-[1-p-tolyl-meth-(Z)-ylidene]-thiazolidin-3-yl}-acetylamino)-benzoic acid]
- IC50 [1]: > 100 µM
- IC50 [2]: 98 µM

Structure (SMILES): O=C(CCCN1C(=O)/C(=C\c2cccs2)SC1=S)Nc1ccc(O)c(C(=O)O)c1 [2-Hydroxy-5-(4-{4-oxo-5-[1-thiophen-2-yl-meth-(Z)-ylidene]-2-thioxo-thiazolidin-3-yl}-butyrylamino)-benzoic acid]
- IC50 [1]: 35 µM
- IC50 [2]: 44 µM

Structure (SMILES): COc1ccc(/C=C2/SC(=S)N(CCC(=O)Nc3ccc(C(=O)O)c(O)c3)C2=O)cc1OC [4-(3-{5-[1-(3,4-Dimethoxy-phenyl)-meth-(Z)-ylidene]-4-oxo-2-thioxo-thiazolidin-3-yl}-propionylamino)-2-hydroxy-benzoic acid]
- IC50 [1]: 17 µM
- IC50 [2]: 61 µM

Structure (SMILES): Cc1ccc(/C=C2\SC(=S)N(CCC(=O)Nc3ccc(S(=O)(=O)Nc4nccs4)cc3)C2=O)cc1 [3-{4-Oxo-2-thioxo-5-[1-p-tolyl-meth-(Z)-ylidene]-thiazolidin-3-yl}-N-[4-(thiazol-2-ylsulfamoyl)-phenyl]-propionamide]
- IC50 [1]: 44 µM
- IC50 [2]: 83 µM

Structure (SMILES): Cc1ccc(/C=C2\SC(=S)N(CC(=O)Nc3cc([N+](=O)[O-])ccc3O)C2=O)cc1 [N-(2-Hydroxy-5-nitro-phenyl)-2-{4-oxo-2-thioxo-5-[1-p-tolyl-meth-(Z)-ylidene]-thiazolidin-3-yl}-acetamide]
- IC50 [1]: 80 µM
- IC50 [2]: 84 µM

Structure (SMILES): Cc1ccc(/C=C2\SC(=S)N(CCC(=O)Nc3cccc(C(=O)O)c3)C2=O)cc1 [3-(3-{4-Oxo-2-thioxo-5-[1-p-tolyl-meth-(Z)-ylidene]-thiazolidin-3-yl}-propionylamino)-benzoic acid]
- IC50 [1]: > 100 µM
- IC50 [2]: 100 µM

Structure (SMILES): O=C(CN1C(=O)/C(=C/c2ccccc2Cl)SC1=S)Nc1ccc([N+](=O)[O-])cc1O [2-{5-[1-(2-Chloro-phenyl)-meth-(Z)-ylidene]-4-oxo-2-thioxo-thiazolidin-3-yl}-N-(2-hydroxy-4-nitro-phenyl)-acetamide]
- IC50 [1]: > 100 µM
- IC50 [2]: > 100 µM

Structure (SMILES): COc1cc(C(=O)Nc2ccc(O)c(C(=O)O)c2)cc(OC)c1OC [2-Hydroxy-5-(3,4,5-trimethoxy-benzoylamino)-benzoic acid]
- IC50 [1]: > 100 µM
- IC50 [2]: > 100 µM

Structure (SMILES): O=C(NN1C(=O)C(=Cc2ccc(Br)cc2)SC1=S)c1ccccc1O [N-{5-[1-(4-Bromo-phenyl)-meth-(Z)-ylidene]-4-oxo-2-thioxo-thiazolidin-3-yl}-2-hydroxy-benzamide]
- IC50 [1]: 27 µM
- IC50 [2]: 52 µM

Structure (SMILES): O=C(NC(=S)Nc1ccc(O)c(C(=O)O)c1)c1ccccc1 [5-(3-Benzoyl-thioureido)-2-hydroxy-benzoic acid]
- IC50 [1]: > 100 µM
- IC50 [2]: > 100 µM

Structure (SMILES): O=C(CCN1C(=O)/C(=C/c2ccc3c(c2)OCO3)SC1=S)Nc1ccc(O)c(C(=O)O)c1 [5-(3-{5-[1-Benzo[1,3]dioxol-5-yl-meth-(Z)-ylidene]-4-oxo-2-thioxo-thiazolidin-3-yl}-propionylamino)-2-hydroxy-benzoic acid]
- IC50 [1]: 17 µM
- IC50 [2]: 15 µM

Structure (SMILES): COc1cc(/C=C2\SC(=S)N(CC(=O)Nc3cc(Cl)ccc3O)C2=O)cc(OC)c1OC [N-(5-Chloro-2-hydroxy-phenyl)-2-{4-oxo-2-thioxo-5-[1-(3,4,5-trimethoxy-phenyl)-meth-(Z)-ylidene]-thiazolidin-3-yl}-acetamide]
- IC50 [1]: 17 µM
- IC50 [2]: 32 µM

Structure (SMILES): CCc1ccc(/C=C2\SC(=S)N(CCC(=O)Nc3ccc(O)c(C(=O)O)c3)C2=O)cc1 [5-(3-{5-[1-(4-Ethyl-phenyl)-meth-(Z)-ylidene]-4-oxo-2-thioxo-thiazolidin-3-yl}-propionylamino)-2-hydroxy-benzoic acid]
- IC50 [1]: 11 µM
- IC50 [2]: 15 µM

Structure (SMILES): Cc1ccc2nc(C(C#N)=Cc3ccc(-c4ccc(O)c(C(=O)O)c4)o3)[nH]c2c1 [5-{5-[(E)-2-Cyano-2-(5-methyl-1H-benzoimidazol-2-yl)-vinyl]-furan-2-yl}-2-hydroxy-benzoic acid]
- IC50 [1]: 8 µM
- IC50 [2]: 16 µM
